Tested on in the first data set: not given
Experiment: not given
Conditions: not given
In general, melting point refers to the temperature, or range, at which the solid turns liquid. In the case of `CCCC(CCC)c1ccc(COc2ccc(-c3csc(CN4CCN(c5ccccc5C(=O)O)CC4)n3)cc2)cc1` [Example 1-155], the melting point lay in the range of 137 to 138 °C.
As for `CCCC(CCC)c1ccc(COc2ccc(-c3csc(CN4CCN(c5cccc(C(=O)O)c5)CC4)n3)cc2)cc1` [Example 1-156], the melting point was 153 to 154 °C.
Same read-out and setting: as for `CCCC(CCC)c1ccc(Cn2cc(-c3csc(COc4ccc(C(=O)O)cc4)n3)c3ccccc32)cc1` [Example 1-157], the figure is 199 to 200 °C.
For `CCCC(CCC)c1ccc2c(c1)nc(-c1csc(COc3ccc(C(=O)O)cc3)n1)n2Cc1ccc(C(C)C)cc1` [Example 1-158], the melting point was in the range of 147 to 152 °C.
`CCCC(CCC)c1ccc(OCc2ccc(-c3csc(CN4CCc5ccc(C(=O)O)cc5C4)n3)cc2)cc1` [Example 1-160] had a melting point of 148.5 to 149.5 °C.
Same read-out and setting: the result for `CCCC(CCC)c1ccc(COc2ccc(-c3csc(CN4CCC(c5ccc(C(=O)O)cc5)CC4)n3)cc2)cc1` [Example 1-161] reads 191 to 193 °C; that for `CCCC(CCC)c1ccc(COc2ccc(-c3csc(CN4CCC(c5cccc(C(=O)O)c5)CC4)n3)cc2)cc1` [Example 1-162], 187 to 189 °C; that for `CCCC(CCC)c1ccc(Cn2cc(-c3csc(CN4CCc5ccc(C(=O)O)cc5C4)n3)c3ccccc32)cc1` [Example 1-166], 124 to 128 °C.
Still for that read-out and setting: as for `CCCC(CCC)c1ccc(Cn2cc(-c3csc(CNc4cccc(C(=O)O)c4)n3)c3ccccc32)cc1` [Example 1-167], the figure is 83 to 85 °C; as for `CCCC(CCC)c1ccc(Cn2cc(-c3csc(CN4CCN(c5cccc(C(=O)O)c5)CC4)n3)c3ccccc32)cc1` [Example 1-172], 107 to 110 °C; as for `CCCC(CCC)c1ccc(OCc2ccc(-c3csc(Cn4nc(C(=O)O)cc4C(C)(C)C)n3)cc2)cc1` [Example 1-178], 195 to 196.5 °C.
Take `CCCC(CCC)c1ccc(OCc2ccc(-c3csc(CC4CCN(c5ccc(C(=O)O)cc5)CC4)n3)cc2)cc1` [Example 1-181]: the melting point was in the range of 174 to 175 °C.
The molecule `CCCC(CCC)c1ccc(Cn2cc(-c3csc(Cn4cc(C(=O)O)c5ccccc54)n3)c3ccccc32)cc1` [Example 1-182] came in with a melting point of 148 to 152 °C.
In turn, `CCC(CC)c1ccc(COc2ccc(-c3csc(CN(CC(=O)O)Cc4ccc(F)cc4)n3)cc2)cc1` [Example 3-14] registered a melting point of 153 to 155 °C.
Still for that read-out and setting: as for `CCCC(CCC)c1ccc(COc2ccc(-c3csc(CN4Cc5ccccc5C[C@H]4C(=O)O)n3)cc2)cc1` [Example 3-26], the figure is 90 to 93 °C; as for `CN(C[C@H]1CC[C@H](c2ccc(Cl)cc2)CC1)c1ccc(-c2csc(CN(CC(=O)O)Cc3ccccc3)n2)cc1` [Example 3-34], 180 to 182 °C.
Still for that read-out and setting: as for `CN(Cc1ccc([C@H]2CC[C@H](C)CC2)cc1)c1ccc(-c2csc(CN3CCC(C(=O)O)(c4ccccc4)CC3)n2)cc1` [Example 3-69], the figure is 229 to 231 °C; as for `CN(C[C@H]1CC[C@H](c2ccc(Cl)cc2)CC1)c1ccc(-c2csc(CN3CCC(C(=O)O)(c4ccccc4)CC3)n2)cc1` [Example 3-70], 167 to 170 °C (dec.); as for `CN(Cc1ccc([C@H]2CC[C@H](C)CC2)cc1)c1ccc(-c2csc(CN3Cc4ccccc4CC3C(=O)O)n2)cc1` (stereo partly shown) [Example 3-71], 202 to 205 °C.
Same read-out and setting: the result for `CCCC(CCC)c1ccc(CN(C)c2ccc(-c3csc(CN(C)[C@H](C(=O)O)c4ccccc4)n3)cc2)cc1` [Example 3-87] reads 146 °C.

The target of a further data set is T1, Recombinant human protein tyrosine phosphatase 1B (Homo sapiens, UniProt P18031).
T1 construct: purchased UBI
T1 sequence (P18031 1-435): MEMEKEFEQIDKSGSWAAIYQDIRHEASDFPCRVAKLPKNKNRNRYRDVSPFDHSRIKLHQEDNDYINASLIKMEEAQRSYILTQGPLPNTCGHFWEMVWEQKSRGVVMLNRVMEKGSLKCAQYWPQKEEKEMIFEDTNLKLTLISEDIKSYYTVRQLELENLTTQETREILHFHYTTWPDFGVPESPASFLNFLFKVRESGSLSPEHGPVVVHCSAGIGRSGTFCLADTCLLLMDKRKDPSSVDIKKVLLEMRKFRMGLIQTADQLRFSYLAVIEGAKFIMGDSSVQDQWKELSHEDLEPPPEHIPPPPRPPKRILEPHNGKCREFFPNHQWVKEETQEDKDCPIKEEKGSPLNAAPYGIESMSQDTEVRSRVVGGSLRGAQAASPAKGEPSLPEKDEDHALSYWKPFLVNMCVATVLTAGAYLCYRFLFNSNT
As to the kind of experiment: Protein tyrosine phosphatase 1B inhibitory activity (malachite green, phosphorylated insulin receptor peptide substrate). It counts as biochemical. The settings on record: recombinant human PTP1B, 60 min room temperature, absorbance 650 nm. How it is done: Preparation of Assay Buffer:
A 50 mM Tris-HCl buffer (pH 7.5), 50 mM NaCl and 3 mM dithiothreitol (DTT) were prepared.
[…] 0.1, 0.3, 1, 3 and 10 μM of the test compound were prepared and diluted with the above-mentioned assay buffer to the final dimethyl sulfoxide (DMSO) concentration of not more than 1%. As the control, the assay buffer was used.
Preparation of Substrate:
Recombinant human protein tyrosine phosphatase 1B (manufactured by UBI) was diluted with the above-mentioned assay buffer (1.2 ng/25 μl).
The sample (10 μl) prepared as mentioned above and a substrate (25 μl) were successively added to a 96 well plate, and the enzyme (25 μl) prepared as mentioned above was added and mixed. The mixture was incubated at room temperature for 60 min and a malachite green (120 μl, Biomol), which is a color reagent, was added. The mixture was further incubated at room temperature for 20 min to allow for color development. An absorbance at 650 nm was measured on a plate reader based on which the protein tyrosine phosphatase 1B inhibitory activity of the test compound was evaluated.
A word on the IC50: it is the concentration at which inhibition is half-maximal. As to `CCCC(CCC)c1ccc(COc2ccc(-c3csc(CN4CCN(c5ccccc5C(=O)O)CC4)n3)cc2)cc1` [Example 1-155], the IC50 is 0.37 µM.
Same read-out and setting: as for `CCCC(CCC)c1ccc(COc2ccc(-c3csc(CN4CCN(c5cccc(C(=O)O)c5)CC4)n3)cc2)cc1` [Example 1-156], the figure is 0.19 µM.
In the case of `CCCC(CCC)c1ccc(Cn2cc(-c3csc(COc4ccc(C(=O)O)cc4)n3)c3ccccc32)cc1` [Example 1-157], the IC50 came to 0.17 µM.
On to `CCCC(CCC)c1ccc2c(c1)nc(-c1csc(COc3ccc(C(=O)O)cc3)n1)n2Cc1ccc(C(C)C)cc1` [Example 1-158], for which the IC50 amounted to 0.29 µM.
Turning to `CCCC(CCC)c1ccc(OCc2ccc(-c3csc(CN4CCc5ccc(C(=O)O)cc5C4)n3)cc2)cc1` [Example 1-160], the IC50 is 0.31 µM.
As to `CCCC(CCC)c1ccc(COc2ccc(-c3csc(CN4CCC(c5ccc(C(=O)O)cc5)CC4)n3)cc2)cc1` [Example 1-161], the IC50 is 0.18 µM.
`CCCC(CCC)c1ccc(COc2ccc(-c3csc(CN4CCC(c5cccc(C(=O)O)c5)CC4)n3)cc2)cc1` [Example 1-162]: the IC50 came to 0.21 µM.
Take `CCCC(CCC)c1ccc(Cn2cc(-c3csc(CN4CCc5ccc(C(=O)O)cc5C4)n3)c3ccccc32)cc1` [Example 1-166]: the IC50 is 0.31 µM.
Turning to `CCCC(CCC)c1ccc(Cn2cc(-c3csc(CNc4cccc(C(=O)O)c4)n3)c3ccccc32)cc1` [Example 1-167], the IC50 is 0.41 µM.
Same read-out and setting: the result for `CCCC(CCC)c1ccc(Cn2cc(-c3csc(CN4CCN(c5cccc(C(=O)O)c5)CC4)n3)c3ccccc32)cc1` [Example 1-172] reads 0.28 µM; that for `CCCC(CCC)c1ccc(OCc2ccc(-c3csc(Cn4nc(C(=O)O)cc4C(C)(C)C)n3)cc2)cc1` [Example 1-178], 0.44 µM.
In the case of `CCCC(CCC)c1ccc(OCc2ccc(-c3csc(CC4CCN(c5ccc(C(=O)O)cc5)CC4)n3)cc2)cc1` [Example 1-181], the IC50 was 0.2 µM.
On the same count and under the same terms, as for `CCCC(CCC)c1ccc(Cn2cc(-c3csc(Cn4cc(C(=O)O)c5ccccc54)n3)c3ccccc32)cc1` [Example 1-182], the figure is 0.19 µM; as for `CCC(CC)c1ccc(COc2ccc(-c3csc(CN(CC(=O)O)Cc4ccc(F)cc4)n3)cc2)cc1` [Example 3-14], 0.38 µM; as for `CCCC(CCC)c1ccc(COc2ccc(-c3csc(CN4Cc5ccccc5C[C@H]4C(=O)O)n3)cc2)cc1` [Example 3-26], 0.11 µM.
Still for that read-out and setting: the result for `CN(C[C@H]1CC[C@H](c2ccc(Cl)cc2)CC1)c1ccc(-c2csc(CN(CC(=O)O)Cc3ccccc3)n2)cc1` [Example 3-34] reads 0.16 µM.
Regarding `CN(Cc1ccc([C@H]2CC[C@H](C)CC2)cc1)c1ccc(-c2csc(CN3CCC(C(=O)O)(c4ccccc4)CC3)n2)cc1` [Example 3-69], the IC50 was 0.16 µM.
For `CN(C[C@H]1CC[C@H](c2ccc(Cl)cc2)CC1)c1ccc(-c2csc(CN3CCC(C(=O)O)(c4ccccc4)CC3)n2)cc1` [Example 3-70], the IC50 was 0.16 µM.
Still for that read-out and setting: the result for `CN(Cc1ccc([C@H]2CC[C@H](C)CC2)cc1)c1ccc(-c2csc(CN3Cc4ccccc4CC3C(=O)O)n2)cc1` (stereo partly shown) [Example 3-71] reads 0.095 µM; that for `CCCC(CCC)c1ccc(CN(C)c2ccc(-c3csc(CN(C)[C@H](C(=O)O)c4ccccc4)n3)cc2)cc1` [Example 3-87], 0.21 µM.

Source of the values: patent US20060122181A1, “Heteroaromatic pentacyclic compound and medicinal use thereof” (Japan Tobacco Inc., priority 2003, published 2006).
